Test results taken from patent US6565883B2, “Controlled release oral compositions comprising rivastigmine” (priority 1998, dated 2003).

Test: Rivastigmine's biopharmaceutical properties in humans
Assay type: in vivo
Text: Little has been published in detail on Rivastigmine's biopharmaceutical properties in humans. […] It is subject to pre-systemic and systemic metabolism. […] Suitable test may be effected in fasted beagle dogs.

With `CCN(C)C(=O)Oc1cccc([C@H](C)N(C)C)c1` [Rivastigmine] the absorption was “rapidly and completely absorbed”, the metabolism (esterases, e.g., acetyl and butyryl cholinesterase) was “metabolised mainly through hydrolysis by esterases” and the half-life (human, plasma) was 1 h.
